In EP4806891A1 (Kangbaida (Sichuan) Biotechnology Co., Ltd., priority 2023, dated 2025):

What follows are molecules tested against T1, HEK-Blue-hTLR7 cells (Homo sapiens, UniProt Q9NYK1) (assay: HEK-Blue-hTLR7 cell inhibition assay). Settings: R848 0.8 µM, 16 h, OD 620 nm, read-out: TLR7 IC50.
T1 construct: expressed in transfected cells; host or cells: HEK-Blue-hTLR7 cells (HEK293-derived reporter line)
T1 sequence (Q9NYK1 27-1049): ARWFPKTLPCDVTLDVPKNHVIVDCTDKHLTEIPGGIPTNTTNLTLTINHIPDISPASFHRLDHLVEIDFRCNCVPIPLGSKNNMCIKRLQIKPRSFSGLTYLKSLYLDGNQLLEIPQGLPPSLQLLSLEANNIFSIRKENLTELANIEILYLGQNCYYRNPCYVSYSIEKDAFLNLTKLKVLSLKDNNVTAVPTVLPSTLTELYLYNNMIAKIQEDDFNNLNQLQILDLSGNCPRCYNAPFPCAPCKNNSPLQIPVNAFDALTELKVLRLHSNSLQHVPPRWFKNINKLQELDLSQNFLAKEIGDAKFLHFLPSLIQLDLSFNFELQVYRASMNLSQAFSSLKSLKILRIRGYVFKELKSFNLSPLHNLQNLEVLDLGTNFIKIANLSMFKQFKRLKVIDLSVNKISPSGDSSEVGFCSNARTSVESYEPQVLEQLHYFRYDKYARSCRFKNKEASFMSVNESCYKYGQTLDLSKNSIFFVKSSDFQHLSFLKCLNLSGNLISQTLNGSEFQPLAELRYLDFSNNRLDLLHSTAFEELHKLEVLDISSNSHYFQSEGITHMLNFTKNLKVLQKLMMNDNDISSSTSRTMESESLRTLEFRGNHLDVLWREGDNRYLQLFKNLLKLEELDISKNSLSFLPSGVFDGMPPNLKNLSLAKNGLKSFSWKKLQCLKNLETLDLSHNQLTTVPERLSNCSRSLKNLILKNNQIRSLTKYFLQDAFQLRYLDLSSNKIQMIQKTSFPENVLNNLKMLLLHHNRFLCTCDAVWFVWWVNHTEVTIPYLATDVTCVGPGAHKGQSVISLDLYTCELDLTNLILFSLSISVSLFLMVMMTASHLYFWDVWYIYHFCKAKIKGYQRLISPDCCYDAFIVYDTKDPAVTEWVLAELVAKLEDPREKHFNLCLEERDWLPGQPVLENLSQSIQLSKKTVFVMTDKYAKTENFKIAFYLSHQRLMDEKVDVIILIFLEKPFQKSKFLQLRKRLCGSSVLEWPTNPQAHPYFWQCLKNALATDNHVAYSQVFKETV
Assay type: cell-based
Description: HEK-Blue-hTLR7/8/9 cell inhibition assay
1. HEK-Blue-hTLR7/8 cells (1 × 10^4 cells/well) and HEK-Blue-hTLR9 cells (1.5 × 10^4 cells/well) were seeded in a 384-well cell culture plate, with a volume of 30 µL per well. The plate was incubated at 37°C in a 5% CO2 incubator for 4 h. 2. The compound was prepared with DMSO and diluted in DMEM medium to 10 concentrations (1:3 dilution), with final concentrations of 10000, 3333.3, 1111.1, 370.4, 123.5, 41.2, 13.7, 4.6, 1.5, and 0.5 nM; R848 was prepared with DMSO and diluted in DMEM medium, with final concentrations of 0.8 µM (HEK-Blue-hTLR7) and 3 µM (HEK-Blue-hTLR8); ODN2006 was prepared with endotoxin-free water and diluted in DMEM medium, with a final concentration of 1 µM. 3. Cells treated with DMSO were used as the blank control group, while cells treated solely with Resiquimod (R848) were used as the positive control group for HEK-Blue-hTLR7/8, and cells treated solely with ODN2006 were used as the positive control group for HEK-Blue-hTLR9. Cells treated with the test compound together with R848 or ODN2006 were used as the test group. Two parallel wells were set for each group and were placed at 37°C in a 5% CO2 incubator for incubation. 4. After being incubated for 4 h, the 384-well plate of HEK-Blue-hTLR7/8 was taken out from the incubator, and R848 alone or both R848 and the diluted compound were separately added into each well. The plate was placed at 37°C in a 5% CO2 incubator for incubation for 16 h; the 384-well plate of HEK-Blue-hTLR9 was taken out from the incubator, and ODN2006 alone or both ODN2006 and the diluted compound were added separately to each well. The plate was incubated at 37°C in a 5% CO2 incubator for 16 h. 5. After being incubated for 16 h, the 384-well plate was removed from the incubator and centrifuged at 1000 rpm for 1 minute. The optical density value of each well at 620 nm was measured using a multifunctional microplate reader. 6. The cell inhibition rate was calculated as (1-(OD620 test group-OD620 blank group)/(OD620 positive group-OD620 blank group))×100%, and the half maximal inhibitory concentration (IC50) was calculated through curve fitting. Table 1: Activity of the compounds of the present disclosure in HEK-Blue-hTLR7/8/9 cellular assays
For `CN1CCC(c2nnc([C@]34CN(c5ccc(C#N)c6ncccc56)C[C@@]3(C(F)(F)F)C4)o2)C(F)C1` (stereo partly drawn) [Compound 50, 5-((1S,5R)-1-(5-(3-fluoro-1-methylpiperidin-4-yl)-1,3,4-oxadiazol-2-yl)-5-(trifluoromethyl)-3-azabicyclo[3.1.0]hexan-3-yl)quinoline-8-carbonitrile], the IC50 was under 100 nM. Molecule `CN(C)C12CCC(c3nnc([C@]45CN(c6ccc(C#N)c7ncccc67)C[C@@]4(C(F)(F)F)C5)o3)(CC1)CC2` [Compound 53, 5-((1S,5R)-1-(5-(4-(dimethylamino)bicyclo[2.2.2]octan-1-yl)-1,3,4-oxadiazol-2-yl)-5-(trifluoromethyl)-3-azabicyclo[3.1.0]hexan-3-yl)quinoline-8-carbonitrile] has an IC50 of under 100 nM. `CN1CCC(n2cc([C@]34CN(c5ccc(C#N)c6ncccc56)C[C@@]3(C(F)(F)F)C4)nn2)CC1` [Compound 71, 5-((1S,5R)-1-(1-(1-methylpiperidin-4-yl)-1H-1,2,3-triazol-4-yl)-5-(trifluoromethyl)-3-azabicyclo[3.1.0]hexan-3-yl)quinoline-8-carbonitrile] showed an IC50 of under 100 nM. With `CN1CC(c2nnc([C@]34CN(c5ccc(C#N)c6ncccc56)C[C@@]3(C(F)(F)F)C4)o2)C1` [Compound 39, 5-((1S,5R)-1-(5-(1-methylazetidin-3-yl)-1,3,4-oxadiazol-2-yl)-5-(trifluoromethyl)-3-azabicyclo[3.1.0]hexan-3-yl)quinoline-8-carbonitrile] the IC50 was under 100 nM. For `NC12CCC(c3nnc([C@]45CN(c6ccc(C(F)(F)F)c7ncccc67)C[C@@]4(C(F)(F)F)C5)o3)(CC1)CC2` [Compound 81, 4-(5-((1S,5R)-5-(trifluoromethyl)-3-(8-(trifluoromethyl)quinolin-5-yl)-3-azabicyclo[3.1.0]hexan-1-yl)-1,3,4-oxadiazol-2-yl)bicyclo[2.2.2]octan-1-amine], the IC50 was under 100 nM. `COc1ccc(N2C[C@]3(c4nnc(C5CCN(C)CC5)o4)C[C@]3(C(F)(F)F)C2)c2cccnc12` [Compound 66, 2-((1S,5R)-3-(8-methoxyquinolin-5-yl)-5-(trifluoromethyl)-3-azabicyclo[3.1.0]hexan-1-yl)-5-(1-methylpiperidin-4-yl)-1,3,4-oxadiazole] showed an IC50 of under 100 nM. Molecule `N#Cc1ccc(N2C[C@]3(c4nnc(C5(F)CNC5)o4)C[C@]3(C(F)(F)F)C2)c2cccnc12` [Compound 32, 5-((1S,5R)-1-(5-(3-Fluoroazetidin-3-yl)-1,3,4-oxadiazol-2-yl)-5-(trifluoromethyl)-3-azabicyclo[3.1.0]hexan-3-yl)quinoline-8-carbonitrile] has an IC50 of under 100 nM. `N#Cc1ccc(N2C[C@]3(c4nnc(C5CCNCC5)o4)C[C@]3(C(F)(F)F)C2)c2c(F)cnn12` [Compound 80, 3-fluoro-4-((1S,5R)-1-(5-(piperidin-4-yl)-1,3,4-oxadiazol-2-yl)-5-(trifluoromethyl)-3-azabicyclo[3.1.0]hexan-3-yl)pyrazolo[1,5-a]pyridine-7-carbonitrile] was tested, and the IC50 was under 100 nM. Molecule `N#Cc1ccc(N2C[C@]3(c4nnc(C5=CCNC5)o4)C[C@]3(C(F)(F)F)C2)c2cccnc12` [Compound 22, 5-((1S,5R)-1-(5-(2,5-dihydro-1H-pyrrol-3-yl)-1,3,4-oxadiazol-2-yl)-5-(trifluoromethyl)-3-azabicyclo[3.1.0]hexan-3-yl)quinoline-8-carbonitrile] has an IC50 of under 100 nM. Work on `Cn1c(CN2CCCC2)nnc1[C@]12CN(c3ccc(C#N)c4ncccc34)C[C@@]1(C(F)(F)F)C2` [Compound 44, 5-((1S,5R)-1-(4-methyl-5-(pyrrolidin-1-ylmethyl)-4H-1,2,4-triazol-3-yl)-5-(trifluoromethyl)-3-azabicyclo[3.1.0]hexan-3-yl)quinoline-8-carbonitrile] yielded an IC50 of under 1000 nM. For `CN1CCC(c2nnc([C@]34CN(c5ccc(C#N)n6ncc(F)c56)C[C@@]3(C(F)(F)F)C4)o2)CC1` [Compound 57, 3-fluoro-4-((1S,5R)-1-(5-(1-methylpiperidin-4-yl)-1,3,4-oxadiazol-2-yl)-5-(trifluoromethyl)-3-azabicyclo[3.1.0]hexan-3-yl)pyrazolo[1,5-a]pyridine-7-carbonitrile], the IC50 was under 100 nM. In the case of `N#Cc1ccc(N2C[C@]3(c4nnc(CN5CCCC5)o4)C[C@]3(C(F)(F)F)C2)c2cccnc12` [Compound 41, 5-((1S,5R)-1-(5-(Pyrrolidin-1-ylmethyl)-1,3,4-oxadiazol-2-yl)-5-(trifluoromethyl)-3-azabicyclo[3.1.0]hexan-3-yl)quinoline-8-carbonitrile], the IC50 is reported as under 100 nM. Work on `N#Cc1ccc(N2C[C@]3(c4nnc(C5CCNCC5F)o4)C[C@]3(C(F)(F)F)C2)c2cccnc12` (stereo partly shown) [Compound 33] yielded an IC50 of under 100 nM. For `N#Cc1ccc(N2C[C@]3(c4nnc(C#CCN5CCOCC5)o4)C[C@]3(C(F)(F)F)C2)c2cccnc12` [Compound 24, 5-((1S,5R)-1-(5-(3-morpholinoprop-1-yn-1-yl)-1,3,4-oxadiazol-2-yl)-5-(trifluoromethyl)-3-azabicyclo[3.1.0]hexan-3-yl)quinoline-8-carbonitrile], the IC50 was under 1000 nM. `N#Cc1ccc(N2C[C@]3(c4nnc(C5CC6(CNC6)C5)o4)C[C@]3(C(F)(F)F)C2)c2cccnc12` [Compound 18, 5-((1S,5R)-1-(5-(2-azaspiro[3.3]heptan-6-yl)-1,3,4-oxadiazol-2-yl)-5-(trifluoromethyl)-3-azabicyclo[3.1.0]hexan-3-yl)quinoline-8-carbonitrile] showed an IC50 of under 100 nM. Work on `N#Cc1ccc(N2C[C@]3(c4nnc(C5CNCC(F)C5)o4)C[C@]3(C(F)(F)F)C2)c2cccnc12` (stereo partly drawn) [Compound 45, 5-((1R,5S)-1-((difluoro-3-methyl)-12-fluoraneyl)-5-(5-(5-fluoropiperidin-3-yl)-1,3,4-oxadiazol-2-yl)-3-azabicyclo[3.1.0]hexan-3-yl)quinoline-8-carbonitrile] yielded an IC50 of under 100 nM. Molecule `Cc1cc(N2CC3(c4nnc(C5CCN(C)CC5)o4)C[C@]3(C(F)(F)F)C2)c2cnn(C)c2n1` (stereo partly drawn) [Compound 2, 2-((5R)-3-(1,6-dimethyl-1H-pyrazolo[3,4-b]pyridin-4-yl)-5-(trifluoromethyl)-3-azabicyclo[3.1.0]hexan-1-yl)-5-(1-methylpiperidin-4-yl)-1,3,4-oxadiazole] has an IC50 of over 1000 nM. Molecule `CN1CCC(F)(c2nnc([C@]34CN(c5ccc(C#N)n6nccc56)C[C@@]3(C(F)(F)F)C4)o2)CC1` [Compound 90, 4-((1S,5R)-1-(5-(4-fluoro-1-methylpiperidin-4-yl)-1,3,4-oxadiazol-2-yl)-5-(trifluoromethyl)-3-azabicyclo[3.1.0]hexan-3-yl)pyrazolo[1,5-a]pyridine-7-carbonitrile] has an IC50 of under 100 nM. Molecule `CN1CCN(c2nnc([C@]34CN(c5ccc(C#N)c6ncccc56)C[C@@]3(C(F)(F)F)C4)o2)CC1` [Compound 1, 5-((1S,5R)-1-(5-(4-methylpiperazin-1-yl)-1,3,4-oxadiazol-2-yl)-5-(trifluoromethyl)-3-azabicyclo[3.1.0]hexan-3-yl)quinoline-8-carbonitrile] has an IC50 of under 100 nM.
